Test: an = ratio of the nth substance listed
Details: 101 kPa, Liquid; for mass density: Vibrating tube method; for viscosity: rotating cylinders

C[N+](C)(C)CCO.[Cl-] [choline chloride] + OCC(O)CO
Details	mass density, a2 = 2 [kg/m3]	mass density, a2 = 4 [kg/m3]	viscosity, a2 = 2 [mPa·s]	viscosity, a2 = 4 [mPa·s]
293.15 K	1194	1217	514.6	578.2
298.15 K	1191	1214	365.7	400.3
303.15 K	1188	1211	265.7	283.4
308.15 K	1185	1208	197	205.1
313.15 K	1183	1205	148.9	151.7
318.15 K	1180	1202	114.7	113
323.15 K	1177	1200	89.81	87.96

C[N+](C)(C)C.[Cl-] [tetramethylammonium chloride] + OCC(O)CO
Details	mass density, a2 = 2 [kg/m3]	mass density, a2 = 4 [kg/m3]	viscosity, a2 = 2 [mPa·s]	viscosity, a2 = 4 [mPa·s]
293.15 K	1158	1180	581.8	557.5
298.15 K	1155	1177	406.9	384.7
303.15 K	1152	1174	290.5	272
308.15 K	1149	1171	212.4	197
313.15 K	1147	1168	158.5	145.8
318.15 K	1144	1166	120.7	110.2
323.15 K	1141	1163	93.57	84.8
